Reference: patent publication US5378846A, “1,2,3,4-tetrahydropyrrolo-[1,2-a]-pyrazine derivatives” (Russian-American Institute For New Drug Development, priority 1993, dated 1995)
“Also recorded” adds a separate entry of the source.

Tests used:
[1] = tested on: aggressive behavior in mice; assay: Antiaggressive activity (threshold of aggressive behavior, electrified floor); assay type: in vivo, outbred male mice
Description: Compounds according to the present invention were checked for their influence on gross behaviour. The experiments described herein (Examples 11, 12, 13, 14, and 15) were carried out using outbred male mice weighing approximately 18-24 g. Each substance was administered intraperitoneally 45 min. before the experiment. Locomotor activity was estimated individually for each animal for 3 min. using an actometer `Era-1` (Russia).
The effect of Compound 1 on the threshold of the aggressive behavior was determined in the experiment on outbred mice (R. Tedesci et al., J. Pharmacol. Exp. Ther., 125, 28-34, (1959), which is incorporated herein by reference). The paired mice were placed on the electrified floor. The strength of the current, which provoked the fighting, was recorded.

C57 B1/6 mice = assay: Open field test, C57 B1/6 mice; assay type: in vivo, male C57 B1/6 mice; conditions: for Central activity / Crosses of Squires / Emotionality (N. of defec.) / Total locomotor activity / Vert. stands: C57 B1/6, i.p.
Description: ESR indices were evaluated as changes in mice ambulations, defecations and motor activity in an "open field" test ([…]., Bull. Exp. Biol. […] Compound 1 was injected in different doses intraperitoneally 45 min. before test.

O=C(O)CCC(=O)O.c1cc2n(c1)CCNC2 [Compound 1, 1,2,3,4-tetrahydropyrrolo-[1,2-a]-pyrazine hydrosuccinate]
Effect on threshold of aggressive response, in words [1]: increase the threshold of aggressive response; also recorded: able to enhance the threshold of aggressive response
Aggression threshold ([1]; 0.5 mg/kg i.p.): 67.2 ± 1.7 V
Aggression threshold ([1]; 5.0 mg/kg i.p.): 90.8 ± 4.9 V
Open field behavior of C57 B1/6 mice, in words (C57 B1/6 mice; 5 mg/kg i.p.): caused the reduction of total ambulations inhibiting central and vertical activity. The number of defecations was not changed
Central activity (C57 B1/6 mice; 0.1 mg/kg): 24.2 ± 5.2
Crosses of Squires (C57 B1/6 mice; 0.1 mg/kg): 74.6 ± 7.6
Emotionality (N. of defec.) (C57 B1/6 mice; 0.1 mg/kg): 1.0 ± 0.53
Total locomotor activity (C57 B1/6 mice; 0.1 mg/kg): 114.6 ± 12.1
Vert. stands (C57 B1/6 mice; 0.1 mg/kg): 15.8 ± 2.5
Central activity (C57 B1/6 mice; 1.0 mg/kg): 29.9 ± 5.2
Crosses of Squires (C57 B1/6 mice; 1.0 mg/kg): 65.6 ± 5.5
Emotionality (N. of defec.) (C57 B1/6 mice; 1.0 mg/kg): 0.8 ± 0.39
Total locomotor activity (C57 B1/6 mice; 1.0 mg/kg): 110.6 ± 10.9
Vert. stands (C57 B1/6 mice; 1.0 mg/kg): 15.1 ± 2.0
Central activity (C57 B1/6 mice; 5.0 mg/kg): 11.1 ± 1.6
Crosses of Squires (C57 B1/6 mice; 5.0 mg/kg): 51.7 ± 5.3
Emotionality (N. of defec.) (C57 B1/6 mice; 5.0 mg/kg): 0.22 ± 0.22
Total locomotor activity (C57 B1/6 mice; 5.0 mg/kg): 71.7 ± 6.9
Vert. stands (C57 B1/6 mice; 5.0 mg/kg): 7.8 ± 1.5
Sedation in C57B1/6 mice, in words (C57 B1/6 mice; anxiolytic dose range, open field test): does not cause sedation in C57B1/6 mice; also recorded: anxiolytic effect in BALB/c mice does not coincide with sedative effect in C57B 1/6 mice
